The values below come from patent US20090143311A1, “Compositions comprising tripeptides inhibiting ace” (priority 2005, published 2009).

The target in experiment [1] is ACE (Homo sapiens, UniProt P12821). The conditions noted are these: literature (Nakamura 1995; Aryoshi 1993); read-out: IC50 values reported earlier; cited from earlier work.
The test system of experiment [2] is ACE. The experiment is described as follows: modified Matsui ACE inhibition assay. The experiment is classed as biochemical. Here is the method:
Quantification of MAP and ITP in the various samples was performed on a Micromass Quattro II MS instrument operated in the positive electrospray, multiple reaction monitoring mode. The HPLC method used was similar to the one described above. The MS settings (ESI+) were as follows: cone voltage 37 V, capillary voltage 4 kV, drying gas nitrogen at 300 l/h. Source and nebulizer temperature: 100° C. and 250° C., respectively. The synthesized peptides were used to prepare a calibration line using the precursor ion 318.1 and the summed product ions […] for MAP and using the precursor ion 320.2 and the summed product ions […] for ITP. According to these analyses the novel ACE inhibiting tripeptides MAP and ITP are present in the CDBAP product in quantities corresponding with 2.9 mg MAP/gram CDBAP or 4.8 mg MAP/gram protein in CDBAP and 0.9 mg ITP/gram CDBAP en 1.4 mg ITP/gram protein in CDBAP. […]
Each one of the four samples contained 75 μl 3 mM hippuryl histidine leucine (Hip-His-Leu, Sigma) dissolved in a 250 mM borate solution containing 200 mM NaCl, pH 8.3. […] After incubation for 20 min. at 37° C., 4 ml 4 mM Na2SO3 in 0.2 M NaH2PO4 was added and the light absorbance at 416 nm was measured with UV/Vis spectrophotometer (Shimadzu UV-1601 with a CPS controller, Netherlands). […]

The test system of experiment [3] is ACE. Description: at-line ACE inhibition assay. The experiment is classed as biochemical. The settings on record: HHL substrate, PBS pH 7.4, 60 minutes at 50° C. The text has this: The presence of novel ACE inhibiting peptides in CDBAP was investigated by using 2-dimensional-chromatographic-separation combined with an at-line ACE inhibition assay and mass spectrometry for identification. In the first analysis the peptide mixture was separated on an ODS3 liquid chromatography (LC) column and ACE inhibition profiles were generated from the various fractions obtained. In a second analysis the fractions from the first column showing a high ACE inhibition were further separated on a Biosuite LC column using a different gradient profile. The fractions collected from this second column were split into two parts: one part was used for the at-line ACE inhibition measurement while the other part was subjected to MS and MS-MS analysis to identify the peptides present. […]
The 96 well plate was then analysed on a flash-HPLC-column. […] Hippuric acid (H) and HHL were monitored at 280 nm. The peak heights of H and HHL were measured and the ACE inhibition (ACEI) of each fraction was calculated according to the equation: […]
The Degree of Cleavage was calculated by expressing the peak height of H as a fraction of the sum of the peak heights of H and HHL.

Sequence of ACE (Homo sapiens, UniProt P12821) (P12821 30-1306, species assumed): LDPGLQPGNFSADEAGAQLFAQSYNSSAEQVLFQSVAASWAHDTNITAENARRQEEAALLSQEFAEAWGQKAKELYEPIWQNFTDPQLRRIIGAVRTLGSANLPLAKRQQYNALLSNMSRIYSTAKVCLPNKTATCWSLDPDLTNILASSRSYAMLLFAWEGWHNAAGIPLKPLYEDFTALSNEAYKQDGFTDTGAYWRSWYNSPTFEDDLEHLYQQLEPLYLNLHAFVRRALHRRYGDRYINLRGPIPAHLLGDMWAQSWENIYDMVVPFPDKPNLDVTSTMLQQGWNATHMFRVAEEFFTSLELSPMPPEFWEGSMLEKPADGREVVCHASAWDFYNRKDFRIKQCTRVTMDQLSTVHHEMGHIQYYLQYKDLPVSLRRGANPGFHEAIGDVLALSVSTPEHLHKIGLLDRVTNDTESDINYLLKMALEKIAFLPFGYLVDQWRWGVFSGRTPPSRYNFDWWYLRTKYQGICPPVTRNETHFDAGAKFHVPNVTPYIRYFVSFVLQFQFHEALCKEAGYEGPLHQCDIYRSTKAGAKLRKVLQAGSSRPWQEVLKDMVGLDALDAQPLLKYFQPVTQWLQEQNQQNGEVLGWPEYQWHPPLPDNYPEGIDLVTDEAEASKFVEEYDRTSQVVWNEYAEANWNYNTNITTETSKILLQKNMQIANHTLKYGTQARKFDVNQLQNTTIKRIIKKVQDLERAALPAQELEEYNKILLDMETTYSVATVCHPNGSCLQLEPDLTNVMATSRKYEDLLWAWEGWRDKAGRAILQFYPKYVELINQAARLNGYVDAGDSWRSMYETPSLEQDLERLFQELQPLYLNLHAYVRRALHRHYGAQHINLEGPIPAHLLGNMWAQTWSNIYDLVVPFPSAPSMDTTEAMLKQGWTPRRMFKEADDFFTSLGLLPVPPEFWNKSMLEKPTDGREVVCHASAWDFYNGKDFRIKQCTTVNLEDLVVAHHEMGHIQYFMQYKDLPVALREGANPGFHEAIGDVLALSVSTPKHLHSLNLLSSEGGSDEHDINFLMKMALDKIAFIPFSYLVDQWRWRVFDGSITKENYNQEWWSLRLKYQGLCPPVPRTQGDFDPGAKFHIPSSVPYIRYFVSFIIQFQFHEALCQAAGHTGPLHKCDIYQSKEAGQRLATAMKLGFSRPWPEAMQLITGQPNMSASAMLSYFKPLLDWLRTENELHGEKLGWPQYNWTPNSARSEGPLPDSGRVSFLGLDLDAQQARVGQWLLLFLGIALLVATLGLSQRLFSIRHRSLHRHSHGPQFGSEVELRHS

For the substance “IPP: known ACE inhibiting tripeptide, kappa-casein f108-110; chemically synthesized IPP used as internal reference”, the IC50 was 5 µM with ACE [1]; 2 µM with ACE [2] (chemically synthesized peptides, Hip-His-Leu, pH 8.3, 37° C., 30 min, read-out: IC50 value Modified Matsui assay); 2 µM in the experiment on ACE [2] (read-out: IC50 value in Modified Matsui test); 7.1 µM with ACE [3].

For “LPP: known ACE inhibiting tripeptide, β-casein f151-153 (UniProt P02666 166-168, looked up, fragment)”, the IC50 with ACE [1] is 9.6 µM.

One may read the IC50 as the midpoint of a concentration-inhibition curve.
